Like-named read-outs stand apart in the source and are kept apart here.
Assays:
[1] = molecular target: T1, recombinant PKC-ι/λ (Homo sapiens, UniProt P41743); experiment: Inhibition of recombinant PKC-ι/λ; type: biochemical; conditions: Example 2
T1 sequence (P41743 1-596): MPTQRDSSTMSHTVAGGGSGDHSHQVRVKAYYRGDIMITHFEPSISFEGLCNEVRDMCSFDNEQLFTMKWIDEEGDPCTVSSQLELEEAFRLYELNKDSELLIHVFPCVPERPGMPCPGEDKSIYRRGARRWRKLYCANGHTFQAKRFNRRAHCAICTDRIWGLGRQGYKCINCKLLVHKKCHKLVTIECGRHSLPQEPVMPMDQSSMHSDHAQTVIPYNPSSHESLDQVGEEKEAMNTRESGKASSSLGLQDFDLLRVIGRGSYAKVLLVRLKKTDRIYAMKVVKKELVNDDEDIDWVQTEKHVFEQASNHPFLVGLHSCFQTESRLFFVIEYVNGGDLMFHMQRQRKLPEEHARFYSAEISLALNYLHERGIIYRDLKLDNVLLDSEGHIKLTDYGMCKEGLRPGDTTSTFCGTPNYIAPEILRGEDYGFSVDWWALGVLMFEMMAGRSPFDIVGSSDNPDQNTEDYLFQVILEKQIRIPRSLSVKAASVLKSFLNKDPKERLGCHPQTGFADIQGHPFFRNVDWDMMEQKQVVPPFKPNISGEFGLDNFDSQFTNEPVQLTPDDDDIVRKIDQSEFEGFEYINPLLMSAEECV
Protocol: 1H-imidazole-4-carboxamide,-5-amino-1-[2,3-dihydroxy-4-[(hydroxyl)methyl]cyclopentyl-[1R-(1a,2b,3b,4a)] […] (ICAPP).
aPKC Inhibitors. We identified by HTS compounds that target the substrate-binding site of aPKCs and potently (IC50s10-30 nM) inhibit recombinant PIP3-dependent aPKCs, but not DAG-dependent PKCs. Three compounds have been studied in detail: (a) 1H-imidazole-4-carboxamide, 5-amino-1-[2,3-dihydroxy-4-[(phosphono-oxy)methyl]cyclopentyl-[1R-(1a,2b,3b,4a)] […] Thus, these agents can reduce brain aPKC activity, indirectly at lower doses by inhibiting liver aPKC and correcting hyperinsulinemia in insulin-resistant states, and, at higher doses, by acting directly on brain PKC-λ/ι.

[2] = tested on: NFκB; experiment: Insulin-induced NFκB activity in LA1-5s neuronal cells; type: cell-based, human; conditions: 200 nM insulin, 24 hours; 1 μM ACPD, increasing concentrations of auranofin
Text: (§1) Cell lysates were subjected to Western analyses for phosphorylated/activated forms of aPKC, NFκB and Akt. Representative blots of indicated proteins are shown in upper bands. […] Bargrams show Mean±SEM of 3-4 determinations. Asterisks indicate P<0.05; comparison of designated group versus the uninhibited, insulin-treated group (ANOVA).
(§2) LA1-5s neuronal cells were originally obtained from non-catecholamine-producing neuroblastoma of a person and are commercially available from the European Collection of Authenticated Cell Cultures. Incubation conditions were as described.
(§3) As described, western analyses were conducted with rabbit antisera, using: anti-aPKC [recognizes a C-terminal sequence in all aPKCs (Santa Cruz Biotechnologies, Santa Cruz, CA, USA)]; anti-phospho-threonine (thr)-560/555-PKC-ζ/λ/ι [recognizes a phosphopeptide sequence present in all aPKCs and indicates activation (Invitrogen, Carlsbad, CA, USA)]; anti-phospho-serine (ser)-473-Akt [recognizes a phosphopeptide sequence at 60 kDa present in all Akt's-1/2/3 and indicates activation (Cell Signaling Technologies, Danvers, MA, USA)]; anti-4 kDa-AP1-40/42 (Cell Signaling Technologies, Danvers, MA, USA); anti-mouse-70 kDa-BACE1 and anti-human-70 kDa-BACE1 (ThermoFisher); and anti-phospho-threonine (thr)-231-tau (Gene Tex, Irvine, CA, USA). […]

[3] = tested on: BACE1; experiment: BACE1 levels in LA1-5s neuronal cells treated with insulin; type: cell-based, human
Protocol: Values of BACE1 are Mean±SEM of 4 values. Asterisks indicate P<0.05 for comparison of designated group versus the untreated control group (ANOVA).
as §2
As described, western analyses were conducted with rabbit antisera, using: anti-aPKC [recognizes a C-terminal sequence in all aPKCs (Santa Cruz Biotechnologies, Santa Cruz, CA, USA)]; anti-phospho-threonine (thr)-560/555-PKC-ζ/λ/ι [recognizes a phosphopeptide sequence present in all aPKCs and indicates activation (Invitrogen, Carlsbad, CA, USA)]; anti-phospho-serine (ser)-473-Akt [recognizes a phosphopeptide sequence at 60 kDa present in all Akt's-1/2/3 and indicates activation (Cell Signaling Technologies, Danvers, MA, USA)]; anti-4 kDa-AP1-40/42 (Cell Signaling Technologies, Danvers, MA, USA); anti-mouse-70 kDa-BACE1 and anti-human-70 kDa-BACE1 (ThermoFisher); and anti-phospho-threonine (thr)-231-tau (Gene Tex, Irvine, CA, USA). Samples from all experimental groups within each study were compared on the same blots and routinely checked with loading controls. All comparisons in histograms were made relative to the mean value of the basal control group, i.e., wild-type mice consuming standard low-fat mouse chow, untreated with insulin or aPKC inhibitors, and having normal levels of aPKCs and other cellular proteins.

[4] = tested on: Akt; experiment: Insulin-induced Akt activation in LA1-5s neuronal cells; type: cell-based, human; conditions: 200 nM insulin, 24 hours
Text: as §1, §2, §3

[5] = molecular target: T1, recombinant PKC-ι/λ; conditions: cited from earlier work
[6] = molecular target: T2, recombinant PKC-ζ (Homo sapiens, UniProt Q05513); conditions: cited from earlier work
T2 sequence (Q05513 1-592): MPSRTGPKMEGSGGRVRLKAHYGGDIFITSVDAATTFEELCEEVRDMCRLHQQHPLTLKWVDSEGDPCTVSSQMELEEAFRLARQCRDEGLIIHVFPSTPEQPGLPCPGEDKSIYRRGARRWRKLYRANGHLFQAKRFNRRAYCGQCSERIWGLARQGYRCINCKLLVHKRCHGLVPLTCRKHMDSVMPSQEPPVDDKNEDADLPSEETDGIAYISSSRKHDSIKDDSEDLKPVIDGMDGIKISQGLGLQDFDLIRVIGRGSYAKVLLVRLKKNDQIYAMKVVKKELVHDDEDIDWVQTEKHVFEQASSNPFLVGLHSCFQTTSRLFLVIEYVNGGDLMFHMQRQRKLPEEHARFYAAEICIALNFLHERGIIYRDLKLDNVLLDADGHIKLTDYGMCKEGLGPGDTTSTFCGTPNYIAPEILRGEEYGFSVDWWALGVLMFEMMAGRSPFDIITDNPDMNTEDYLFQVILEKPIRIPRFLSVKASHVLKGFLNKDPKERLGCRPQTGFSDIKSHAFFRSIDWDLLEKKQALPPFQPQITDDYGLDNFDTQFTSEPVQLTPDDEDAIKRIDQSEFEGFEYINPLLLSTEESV

[7] = tested on: recombinant forms of PKC-α, PKC-β, PKC-δ, PKCε, or PKC-θ; conditions: cited from earlier work
[8] = tested on: aPKC, Akt2, AMP-activated kinase (AMPK), FoxO1; conditions: isolated human hepatocytes; cited from earlier work
[9] = tested on: aPKC; conditions: cited from earlier work
[10] = tested on: PKC-λ/ι activity, BACE1 activity, Aβ1-40/42; conditions: LA1-5s neuronal cells, previously reported; cited from earlier work
[11] = tested on: PKCι and PKCζ; conditions: cited from earlier work

Structure (SMILES) | IC50 [1] [nM] | insulin-induced increase in NFκB activity [2] | insulin-induced increase in BACE1 levels ([3]; 200 nM insulin, 24 hours, increasing concentrations of ICAPP) | basal/resting levels of BACE1 ([3]; at higher levels of inhibitor) | insulin-induced Akt activation [4] | IC50 [5] [nM] | IC50 [6] [nM] | effect on recombinant PKC-α, PKC-β, PKC-δ, PKCε, PKC-θ [7] | FoxO1 phosphorylation/inactivation [8] | inhibition of aPKC, Akt2, AMPK [8] | inhibition of brain aPKC ([9]; at higher doses) | aPKC inhibition in liver, muscle, adipose tissue ([9]; intact mice, employed doses) | insulin-induced increases in PKC-λ/ι activity, BACE1 activity and production of Aβ1-40/42 [10] | insulin activation of aPKC (PB1 site) [11]
NC(=O)c1ncn([C@@H]2C[C@H](COP(=O)(O)O)[C@@H](O)[C@H]2O)c1N [ICAPP] | 1 to 10 | diminished | diminished | reduced basal/resting levels of BACE1 | not Akt activation | 1 to 10 | 200 to 500 | no effect | increase FoxO1 phosphorylation/inactivation | inhibit aPKC but not Akt2 or AMP-activated kinase (AMPK) | inhibit brain aPKC | inhibit aPKC in liver, but not in muscle or adipose tissue | blocked | 
O=C(O)CC([S-])C(=O)O.[Au+] (centres unmarked) [aurothiomalate] |  |  |  |  |  |  |  |  |  |  |  |  |  | inhibit insulin activation of aPKC

Reference: patent US20250032530A1, “USE OF AURANOFIN AS AN INHIBITOR OF ATYPICAL PROTEIN KINASE C FOR TREATMENT OF NEURODEGENERATIVE DISORDERS” (UNIVERSITY OF SOUTH FLORIDA, priority 2021, published 2025)
